Activity calls are given as the source filed them. No cut-off for these calls is given here.

Series [1] deals with Mus musculus. Nature of the series: Increase in human F9 nonsense R338X mutant antigen coagulant activity in C57B/6J mouse plasma at 28 mg/kg, sc administered daily for 7 days after 9 hrs by ELISA. It counts as functional. The conditions noted are these: route subcutaneous.
Series [2] relates to Mus musculus. Nature of the series: Increase in human F9 nonsense R338X mutant antigen coagulant activity in C57B/6J mouse plasma at 42 mg/kg, sc administered daily for 2 days after 9 hrs. It counts as functional. Particulars: route subcutaneous.
In series [3] the test system is Mus musculus. Nature of the series: Increase in human F9 nonsense R338X mutant antigen coagulant activity in C57B/6J mouse plasma at 28 mg/kg, sc administered daily for 7 days after 3 hrs by ELISA. Particulars: route subcutaneous.
Series [4] concerns Mus musculus. The experiment in a line: Increase in human F9 nonsense R338X mutant antigen level per 100 ul of plasma in C57B/6J mouse model at 42 mg/kg, sc administered daily for 2 days after 9 hrs by ELISA. It counts as functional. The conditions noted are these: route subcutaneous.
In series [5] the test system is Mus musculus. Nature of the series: Increase in human F9 nonsense R338X mutant antigen coagulant activity in C57B/6J mouse plasma at 7 mg/kg, sc administered daily for 2 days after 2 hrs. It counts as functional. Particulars: route subcutaneous.
Series [6] concerns Mus musculus. The experiment in a line: Increase in human F9 nonsense R338X mutant antigen coagulant activity in C57B/6J mouse plasma at 28 mg/kg, sc administered daily for 7 days after 9 hrs by ELISA.
Series [7] in a line: Toxicity in C57BL/6J hemophilia B mouse model at 28 mg/kg, sc. It counts as organism-based. The arrangement: dose 28 mg/kg, route subcutaneous. The conditions noted are these: in vivo.
Series [8] concerns Mus musculus. Nature of the series: Increase in human F9 nonsense R338X mutant antigen level per 100 ul of plasma in C57B/6J mouse model at 28 mg/kg, sc administered daily for 2 days after 9 hrs by ELISA. It counts as functional. Particulars: route subcutaneous.
For series [9], the system named is Mus musculus. Nature of the series: Increase in human F9 nonsense R338X mutant antigen coagulant activity in C57B/6J mouse plasma at 28 mg/kg, sc administered daily for 2 days after 2 hrs. It counts as functional. The conditions noted are these: route subcutaneous.
In series [10] the test system is Mus musculus. The experiment in a line: Increase in human F9 nonsense R338X mutant antigen level per 100 ul of plasma in C57B/6J mouse model at 7 mg/kg, sc administered daily for 2 days after 2 hrs by ELISA. It counts as functional. Particulars: route subcutaneous.
Series [11] in a line: Half life in C57BL/6J hemophilia B mouse model at 28 mg/kg, sc for 2 days. It counts as ADME, organism-based. Details: dose 28 mg/kg, route subcutaneous. The conditions noted are these: in vivo.
The nature of series [12]: Elimination half life in C57BL/6J hemophilia B mouse model liver at 28 mg/kg, sc for 2 days. Details: dose 28 mg/kg, route subcutaneous. It counts as ADME, organism-based.
Series [13] relates to Mus musculus. The experiment in a line: Increase in human F9 nonsense R338X mutant antigen coagulant activity in C57B/6J mouse plasma at 28 mg/kg, sc administered daily for 2 days after 9 hrs. It counts as functional. Particulars: route subcutaneous.
Series [14] concerns Mus musculus. Nature of the series: Increase in human F9 nonsense R338X mutant antigen coagulant activity in C57B/6J mouse plasma at 14 mg/kg, sc administered daily for 2 days after 2 hrs. It counts as functional. The conditions noted are these: route subcutaneous.
Series [15] has as its system Mus musculus. The experiment in a line: Increase in human F9 nonsense R338X mutant antigen level per 100 ul of plasma in C57B/6J mouse model at 14 mg/kg, sc administered daily for 2 days after 2 hrs by ELISA. It counts as functional. The conditions noted are these: route subcutaneous.
Series [16] relates to Mus musculus. The experiment in a line: Increase in human F9 nonsense R338X mutant antigen level per 100 ul of plasma in C57B/6J mouse model at 28 mg/kg, sc administered daily for 2 days after 2 hrs by ELISA. It counts as functional. The conditions noted are these: route subcutaneous.

In the case of `CN[C@@H]1[C@@H](O)[C@@H](O[C@@H]2[C@@H](O)[C@H](O[C@H]3O[C@H]([C@@H](C)O)[C@@H](O)[C@H](O)[C@H]3N)[C@@H](N)C[C@H]2N)OC[C@]1(C)O` [GENETICIN], the Activity with Mus musculus [1] is 43.9 ng; with Mus musculus [2] it was 4.98%; in the series on Mus musculus [3], 22.8 ng; in the series on Mus musculus [4], 13.57 ng; in the series with Mus musculus [5] it was 4.55%; in the series with Mus musculus [8] it was 27.28 ng. The Activity is on record as 6.94% in the series with Mus musculus [9]; 2.28 ng in the series with Mus musculus [10]; 8.03% with Mus musculus [13]; 6.18% in the series with Mus musculus [14]; 5.79 ng with Mus musculus [15]; 8.75 ng in the series on Mus musculus [16]. In the series on Mus musculus [6], the result was Active. Besides, the LD50 in series [7] worked out at 1300 mg/kg. Further, the half-life is 0.25 h in series [11] and 80 h in series [12].
